What all share (type): cell-based
One experiment deals with T1, PTGER2 (EP2) (Homo sapiens, UniProt P43116).
T1 construct: host or cells: HEK 293 (PathHunter PTGER2 b-arrestin cell line)
Description: hEP2 b-arrestin assay (PathHunter HEK 293 PTGER2 b-arrestin cells). The conditions noted are these: antagonistic activity, beta-arrestin assay; read-out: hEP2 b-arr IC50. The gist of the method:
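PathHunter HEK293 cells with ProLink-tagged EP2 and EA-β-arrestin 2 preincubated 15 min at 37 °C with compound (10 μM-2 nM or 1 μM-0.2 nM), then stimulated 120 min with 5 μM PGE2 (EC80). β-gal complementation read by chemiluminescence; IC50 from duplicate dose-response versus DMSO.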

The target of a further experiment is T2, PTGER4 (EP4) (Homo sapiens, UniProt P35408).
T2 construct: host or cells: HEK 293 (PathHunter PTGER4 b-arrestin cell line)
Description: hEP4 b-arrestin assay (PathHunter HEK 293 PTGER4 b-arrestin cells). The conditions noted are these: antagonistic activity, beta-arrestin assay; read-out: hEP4 b-arr IC50. The gist of the method:
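PathHunter HEK 293 cells expressing ProLink-tagged human EP4 and EA-β-arrestin 2, seeded 24 h before. Compounds (10 μM–2 nM or 1 μM–0.2 nM) preincubated 15 min at 37 °C, then 20 nM PGE2 (EC80) for 120 min at 37 °C. β-gal complementation luminescence read; IC50 from duplicate dose-response curves versus DMSO control.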

The target in a further experiment is T3, EP4 receptor (Homo sapiens, UniProt P35408).
T3 construct: BT549 breast cancer cells, express high endogenous EP4 levels and very low EP2 levels; host or cells: BT549 breast cancer cells
Description: hEP4 cAMP assay (BT549 breast cancer cells, HTRF cAMP, PGE2 stimulation). The conditions noted are these: antagonistic activity, PGE2 6 nM (EC80). The gist of the method:
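BT549 cells, with endogenous EP4 and very low EP2, were preincubated 45 min at room temperature with compound in HBSS/HEPES/BSA buffer with 2 mM IBMX. They were then stimulated 30 min with 6 nM PGE2 (EC80). cAMP was measured by HTRF competitive immunoassay against a calibrator; IC50 from duplicate dose-response as % of DMSO control.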
Background: Cyclic AMP is a second messenger, typically raised through Gs and lowered through Gi signalling.

Structures are written as SMILES.

T1 sequence (P43116 whole entry): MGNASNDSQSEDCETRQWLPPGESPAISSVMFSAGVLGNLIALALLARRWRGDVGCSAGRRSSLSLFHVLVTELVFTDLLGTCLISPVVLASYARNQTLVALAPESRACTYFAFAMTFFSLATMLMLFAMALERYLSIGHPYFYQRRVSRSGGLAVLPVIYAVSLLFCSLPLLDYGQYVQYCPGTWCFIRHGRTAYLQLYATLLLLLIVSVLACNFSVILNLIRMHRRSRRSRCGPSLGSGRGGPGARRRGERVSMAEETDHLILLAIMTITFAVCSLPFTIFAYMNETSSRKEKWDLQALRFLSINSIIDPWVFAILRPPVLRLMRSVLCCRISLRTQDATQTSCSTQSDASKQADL
T3 sequence (P35408 whole entry): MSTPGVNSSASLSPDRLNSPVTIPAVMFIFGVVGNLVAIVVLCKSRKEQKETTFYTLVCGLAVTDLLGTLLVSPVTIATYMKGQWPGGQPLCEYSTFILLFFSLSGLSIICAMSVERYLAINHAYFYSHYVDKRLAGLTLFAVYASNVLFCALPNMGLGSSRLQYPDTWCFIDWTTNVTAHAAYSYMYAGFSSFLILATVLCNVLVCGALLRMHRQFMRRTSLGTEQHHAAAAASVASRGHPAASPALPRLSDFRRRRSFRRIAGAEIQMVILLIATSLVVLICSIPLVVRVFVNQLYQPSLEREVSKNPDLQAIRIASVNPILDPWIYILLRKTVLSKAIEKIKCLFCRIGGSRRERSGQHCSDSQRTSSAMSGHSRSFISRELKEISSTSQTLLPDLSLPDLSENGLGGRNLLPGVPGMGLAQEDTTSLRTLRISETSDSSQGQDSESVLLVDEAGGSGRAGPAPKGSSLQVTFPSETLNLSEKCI
T2 sequence (P35408 whole entry): as above

In the case of `CCOc1cc(-c2cc(NCCc3c(C)sc4c(OC)ccc(F)c34)ncn2)ccc1CC(=O)O` [Example 105, (2-Ethoxy-4-{6-[2-(4-fluoro-7-methoxy-2-methyl-benzo[b]thiophen-3-yl)-ethylamino]-pyrimidin-4-yl}-phenyl)-acetic acid], the IC50 on PTGER2 (EP2) is 33 nM; on PTGER4 (EP4), 58 nM; at EP4 receptor, 125 nM.

Take `CCOc1cc(-c2cc(NCCc3c(C)sc4c(C)ccc(F)c34)ncn2)ccc1CC(=O)O` [Example 107, (2-Ethoxy-4-{6-[2-(4-fluoro-2,7-dimethyl-benzo[b]thiophen-3-yl)-ethylamino]-pyrimidin-4-yl}-phenyl)-acetic acid]: the IC50 on PTGER2 (EP2) was 38 nM; at PTGER4 (EP4), 167 nM; on EP4 receptor, 255 nM.

On to `CCOc1cc(-c2cc(NCCc3c(C)sc4c(C)cccc34)ncn2)ccc1CC(=O)O` [Example 109, (4-{6-[2-(2,7-Dimethyl-benzo[b]thiophen-3-yl)-ethylamino]-pyrimidin-4-yl}-2-ethoxy-phenyl)-acetic acid], for which the IC50 at PTGER2 (EP2) came to 24 nM; on PTGER4 (EP4), 405 nM; against EP4 receptor it was 290 nM.

As to `CCOc1cc(-c2cc(NCCc3c(C)sc4c(C)cc(F)cc34)ncn2)ccc1CC(=O)O` [Example 110, (2-Ethoxy-4-{6-[2-(5-fluoro-2,7-dimethyl-benzo[b]thiophen-3-yl)-ethylamino]-pyrimidin-4-yl}-phenyl)-acetic acid], the IC50 on PTGER2 (EP2) came out at 25 nM; at PTGER4 (EP4) it was 403 nM; at EP4 receptor, 296 nM.

Turning to `CCOc1cc(-c2cc(NCCc3c(C)sc4c(C)c(F)ccc34)ncn2)ccc1CC(=O)O` [Example 112, (2-Ethoxy-4-{6-[2-(6-fluoro-2,7-dimethyl-benzo[b]thiophen-3-yl)-ethylamino]-pyrimidin-4-yl}-phenyl)-acetic acid], the IC50 came out at 42 nM at PTGER2 (EP2), 665 nM at PTGER4 (EP4) and 450 nM against EP4 receptor.

Turning to `Cc1sc2c(C)cc(F)cc2c1CCNc1cc(-c2ccc(C(=O)O)c(OC(F)F)c2)ncn1` [Example 115, 2-Difluoromethoxy-4-{6-[2-(5-fluoro-2,7-dimethyl-benzo[b]thiophen-3-yl)-ethylamino]-pyrimidin-4-yl}-benzoic acid], the IC50 at PTGER2 (EP2) was 16 nM; at PTGER4 (EP4) it was 208 nM; at EP4 receptor it was 60 nM.

For `COc1ccc(Cl)c2c(CCNc3cc(-c4ccc(C(=O)O)c(OC(F)F)c4)ncn3)c(C)sc12` [Example 116, 4-{6-[2-(4-Chloro-7-methoxy-2-methyl-benzo[b]thiophen-3-yl)-ethylamino]-pyrimidin-4-yl}-2-difluoromethoxy-benzoic acid], the IC50 was determined as 30 nM on PTGER2 (EP2), 297 nM on PTGER4 (EP4) and 223 nM at EP4 receptor.

`CCOc1cc(-c2cc(NCCc3c(C)sc4c(OC)ccc(F)c34)ncn2)ccc1OCC(=O)O` [Example 117, (2-Ethoxy-4-{6-[2-(4-fluoro-7-methoxy-2-methyl-benzo[b]thiophen-3-yl)-ethylamino]-pyrimidin-4-yl}-phenoxy)-acetic acid]: the IC50 at PTGER2 (EP2) turned out to be 20 nM; on PTGER4 (EP4) it was 23 nM; against EP4 receptor, 54 nM.

With `CCOc1cc(-c2cc(NCCc3c(C)sc4c(C)ccc(F)c34)ncn2)ccc1OCC(=O)O` [Example 118, (2-Ethoxy-4-{6-[2-(4-fluoro-2,7-dimethyl-benzo[b]thiophen-3-yl)-ethylamino]-pyrimidin-4-yl}-phenoxy)-acetic acid], the IC50 at PTGER2 (EP2) is 16 nM; at PTGER4 (EP4), 29 nM; against EP4 receptor, 87 nM.

Turning to `CCOc1cc(-c2cc(NCCc3c(C)sc4c(C)c(F)ccc34)ncn2)ccc1OCC(=O)O` [Example 119, (2-Ethoxy-4-{6-[2-(6-fluoro-2,7-dimethyl-benzo[b]thiophen-3-yl)-ethylamino]-pyrimidin-4-yl}-phenoxy)-acetic acid], the IC50 on PTGER2 (EP2) stood at 21 nM; at PTGER4 (EP4) it was 143 nM; on EP4 receptor, 110 nM.

As for `CCOc1cc(-c2cc(NCCc3c(C)oc4c(Cl)cccc34)ncn2)ccc1OCC(=O)O` [Example 120, (4-{6-[2-(7-Chloro-2-methyl-benzofuran-3-yl)-ethylamino]-pyrimidin-4-yl}-2-ethoxy-phenoxy)-acetic acid], the IC50 was found to be 29 nM at PTGER2 (EP2), 290 nM on PTGER4 (EP4) and 123 nM against EP4 receptor.

Turning to `CCOc1cc(-c2cc(NCCc3c(C)oc4c(OC)cc(Cl)cc34)ncn2)ccc1OCC(=O)O` [Example 121, (4-{6-[2-(5-Chloro-7-methoxy-2-methyl-benzofuran-3-yl)-ethylamino]-pyrimidin-4-yl}-2-ethoxy-phenoxy)-acetic acid], the figures for the IC50 on PTGER2 (EP2), on PTGER4 (EP4) and against EP4 receptor were 27 nM, 75 nM and 129 nM, respectively.

On to `CCOc1cc(-c2cc(NCCc3c(C)sc4c(C)cccc34)ncn2)ccc1OCC(=O)O` [Example 122, (4-{6-[2-(2,7-Dimethyl-benzo[b]thiophen-3-yl)-ethylamino]-pyrimidin-4-yl}-2-ethoxy-phenoxy)-acetic acid], for which the IC50 was determined as 14 nM on PTGER2 (EP2), 83 nM at PTGER4 (EP4) and 136 nM at EP4 receptor.

Regarding `CCCCOc1cc(-c2cc(NCCc3c(C)sc4c(C)cc(F)cc34)ncn2)ccc1C(=O)O` [Example 127, 2-Butoxy-4-{6-[2-(5-fluoro-2,7-dimethyl-benzo[b]thiophen-3-yl)-ethylamino]-pyrimidin-4-yl}-benzoic acid], the figures for the IC50 on PTGER2 (EP2), on PTGER4 (EP4) and at EP4 receptor were 16 nM, 225 nM and 873 nM, respectively.

Take `Cc1oc2ccccc2c1CCNc1cc(-c2ccc(C(=O)O)c(SC3CCC3)c2)ncn1` [Example 129, 2-Cyclobutylsulfanyl-4-{6-[2-(2-methyl-benzofuran-3-yl)-ethylamino]-pyrimidin-4-yl}-benzoic acid]: the IC50 was determined as 6 nM on PTGER2 (EP2), 1410 nM at PTGER4 (EP4) and 795 nM on EP4 receptor.

In the case of `Cc1sc2c(C)cccc2c1CCNc1cc(-c2ccc(C(=O)O)c(SC3CCC3)c2)ncn1` [Example 130, 2-Cyclobutylsulfanyl-4-{6-[2-(2,7-dimethyl-benzo[b]thiophen-3-yl)-ethylamino]-pyrimidin-4-yl}-benzoic acid], the figures for the IC50 at PTGER2 (EP2), at PTGER4 (EP4) and against EP4 receptor were 12 nM, 193 nM and 980 nM, respectively.

Take `Cc1sc2c(C)cccc2c1CCNc1cc(-c2ccc(C(=O)O)c(SC3COC3)c2)ncn1` [Example 131, 4-{6-[2-(2,7-Dimethyl-benzo[b]thiophen-3-yl)-ethylamino]-pyrimidin-4-yl}-2-(oxetan-3-ylsulfanyl)-benzoic acid]: the IC50 worked out at 12 nM at PTGER2 (EP2), 1220 nM at PTGER4 (EP4) and 625 nM on EP4 receptor.

For `O=C(O)c1ccc(-c2cc(NCCc3csc4ccccc34)ncn2)cc1OC1CCC1` [Example 132, 4-[6-(2-Benzo[b]thiophen-3-yl-ethylamino)-pyrimidin-4-yl]-2-cyclobutoxy-benzoic acid], the IC50 on PTGER2 (EP2) was 58 nM; on PTGER4 (EP4), 561 nM; against EP4 receptor, 166 nM.

Consider `COc1cc(Cl)cc2c(CCNc3cc(-c4ccc(C(=O)O)c(OC5CCC5)c4)ncn3)c(C)oc12` [Example 133, 4-{6-[2-(5-Chloro-7-methoxy-2-methyl-benzofuran-3-yl)-ethylamino]-pyrimidin-4-yl}-2-cyclobutoxy-benzoic acid], for which the concentration for half-maximal inhibition (IC50) was 25 nM at PTGER2 (EP2), 74 nM at PTGER4 (EP4) and 170 nM against EP4 receptor.

For `COc1ccc(F)c2c(CCNc3cc(-c4ccc(C(=O)O)c(OC5CCC5)c4)ncn3)c(C)sc12` [Example 134, 2-Cyclobutoxy-4-{6-[2-(4-fluoro-7-methoxy-2-methyl-benzo[b]thiophen-3-yl)-ethylamino]-pyrimidin-4-yl}-benzoic acid], the IC50 on PTGER2 (EP2) was 27 nM; at PTGER4 (EP4) it was 893 nM; at EP4 receptor, 194 nM.

Regarding `COc1ccc(Cl)c2c(CCNc3cc(-c4ccc(C(=O)O)c(OC5CCC5)c4)ncn3)c(C)sc12` [Example 135, 4-{6-[2-(4-Chloro-7-methoxy-2-methyl-benzo[b]thiophen-3-yl)-ethylamino]-pyrimidin-4-yl}-2-cyclobutoxy-benzoic acid], the IC50 worked out at 14 nM on PTGER2 (EP2), 235 nM on PTGER4 (EP4) and 198 nM at EP4 receptor.

In the case of `Cc1sc2c(C)ccc(F)c2c1CCNc1cc(-c2ccc(C(=O)O)c(OC3CCC3)c2)ncn1` [Example 136, 2-Cyclobutoxy-4-{6-[2-(4-fluoro-2,7-dimethyl-benzo[b]thiophen-3-yl)-ethylamino]-pyrimidin-4-yl}-benzoic acid], the IC50 at PTGER2 (EP2) stood at 13 nM; on PTGER4 (EP4), 155 nM; on EP4 receptor it was 411 nM.

On to `Cc1oc2c(Cl)cccc2c1CCNc1cc(-c2ccc(C(=O)O)c(OC3CCC3)c2)ncn1` [Example 137, 4-{6-[2-(7-Chloro-2-methyl-benzofuran-3-yl)-ethylamino]-pyrimidin-4-yl}-2-cyclobutoxy-benzoic acid], for which the IC50 on PTGER2 (EP2) is 15 nM; at PTGER4 (EP4), 258 nM; on EP4 receptor, 423 nM.

A word on the IC50: it is the concentration needed to halve the response being measured.

The values are drawn from patent US11325899B2, “Benzofurane and benzothiophene derivatives as PGE2 receptor modulators” (IDORSIA PHARMACEUTICALS LTD, priority 2017, dated 2022).
